Results as given in patent US20230047788A1, “COMPOSITIONS COMPRISING 5-CHOLESTEN-3, 25-DIOL, 3-SULFATE (25HC3S) OR PHARMACEUTICALLY ACCEPTABLE SALT THEREOF AND AT LEAST ONE CYCLIC OLIGOSACCHARIDE” (Virginia Commonwealth University, priority 2016, published 2023).
Values joined by “and” are separate entries in the source; they are usually repeats but may differ in a detail not shown here. Equal entries are not always repeated.

Experiments:
[1] = tested on: LPS endotoxin shock model; assay: Survival in rodent model of LPS endotoxin shock; type: in vivo, C57BL/6J mice; conditions: LPS 5 mg/kg iv; 50 mg/kg 25HC3S ip 2 hours prior to LPS; six days after LPS; N=10
Method: The subjects for the study were 20 male C57BL/6J mice (20-22 weeks of age, 27-35 g).
A solution formulation of 25HC3S and its respective vehicle was used for the study. The vehicle was a solution of 4% (w/v) hydroxypropyl betadex, 10% (w/v) dextrose, with 10 mM sodium phosphate buffer in sterile water. Vehicle was stored at 2-8° C. storage and placed at room temperature for 30 minutes prior to dosing.
25HC3S sodium salt was pre-dissolved into the vehicle solution to result in a drug concentration of 5 mg/mL. The 25HC3S solution was ready-to-use at the start of dosing. It was also stored at 2-8° C. storage and placed at room temperature for 30 minutes prior to dosing the mice.
50 mg/kg of 25HC3S in vehicle or vehicle alone (N=10/group) were administered to mice once by intraperitoneal injection 2 hours prior to LPS delivery. A semi-lethal dose of LPS (5 mg/kg) was given by intravenous injection to the tail vein in order to induce an acute inflammatory response that mimics systemic sepsis-like conditions.
Mice were monitored for survival for 6 days after 25HC3S and LPS treatments. Animal checks for mortality were performed twice daily during the 6 day observation period. Animals were examined for any altered clinical signs, including gross motor and behavioral activity, and observable changes in appearance. […]

[2] = Osmolality of 30 mg/mL 25HC3S, 250 mg/mL HPbCD, 10 mM phosphate solution; type: physicochemical; conditions: 30 mg/mL 25HC3S sodium salt, 10 mM sodium phosphate buffer in water
Method: The optimal concentration of HPbCD to solubilize a high amount of 25HC3S, and to contain a small amount of buffer (10 mM phosphate buffer) to minimize pH changes on stability, is 250 mg/mL HPbCD. The solution of 30 mg/mL 25HC3S sodium salt, 250 mg/mL HPbCD with 10 mM sodium phosphate buffer in water has an osmolality of approximately 320 mmol/kg. Isotonic solutions range from 270-340 mmol/kg. Higher concentrations of HPbCD greater than 250 mg/mL with higher than 30 mg/mL concentrations of 25HC3S lead to hypertonic solutions. Hypertonic solutions can cause pain upon subcutaneous and intramuscular injection. Conversely, concentrations of HPbCD much less than 250 mg/mL with much less than 30 mg/mL concentrations of 25HC3S require the addition of an isotonic agent, such as sodium chloride or mannitol, to bring the isotonicity into the expected range for a parenteral dosage form.

[3] = Solubility of 25HC3S in water as function of HPbCD or SBECD concentration at room temperature; type: physicochemical; conditions: for 25HC3S Solubility / Molar of 25HC3S: room temperature
Method: A total of six suspensions of 25HC3S sodium salt were prepared in water containing 0, 50, 100, 200, 250 and 400 mg/mL hydroxypropyl-β-cyclodextrin (HPbCD, hydroxypropyl betadex) or sulfobutyl ether β-cyclodextrin (SBECD, Captisol®). Both cyclodextrins are used in approved pharmaceutical products and are manufactured as Good Manufacturing Practice (GMP) excipients. Each suspension was agitated at room temperature, aliquots were centrifuged, and the supernatant solutions assayed for 25HC3S concentrations by a reverse phase HPLC method. The solubility data of 25HC3S as a function of HPbCD concentrations is in Table 1 and as a function of SBECD concentrations is in Table 2.

[4] = Solubility of 25HC3S in alpha-, beta- and gamma-cyclodextrin, 10 mM phosphate buffer pH 7.4; type: physicochemical; conditions: for repeated solubility of 25HC3S: repeated experiment
Method: The solubility of 25HC3S at ambient room temperature for one day in 5 and 10% (w/v) alpha cyclodextrin (α-CD), 1% (w/v) beta cyclodextrin (β-CD) and 5 and 10% (w/v) gamma cyclodextrin (γ-CD), each containing 10 mM phosphate buffer at pH 7.4 was determined by an HPLC method.
α-CD, β-CD and γ-CD were used in the study. Sodium phosphate monobasic, monohydrate and sodium phosphate, dibasic, anhydrous were used to prepare 10 mM phosphate buffer at pH 7.4.
Approximately 30 to 50 mg of 25HC3S was weighed into a 20 mL vial (5 vials total, one vial for each vehicle). Approximately 8 mL each of 5 and 10% (w/v) α-CD, 1% (w/v) β-CD, and 5 and 10% (w/v) γ-CD containing 10 mM phosphate buffer at pH 7.4 was added to each vial, respectively. The samples were sonicated and vortexed to disperse the drug. The drug suspensions in these 5 vials were stirred at 500 rpm at ambient RT (20.0-22.2° C.). On day 1, approximately 1.2 mL each of the suspensions was transferred into 2 mL conical vials (a total of 5 vials for each suspension) and centrifuged at 12,000 rpm for 10 min. Approximately 1 mL of the supernatant from each suspension (prior to filtration) was used for HPLC analysis. The supernatants for the rest of the vials from the same suspension were combined together and filtered through […], 13 mm in diameter Acrodisk syringe filter with Nylon membrane. The first 2-mL of filtrate was discarded. The next 2 consecutive filtrates of 0.5-0.7 mL each were collected into HPLC vials for analysis.

[5] = human, in vivo
Method: This example describes a randomized, double-blind, placebo-controlled, safety and pharmacokinetic study of a parenteral formulation of 25HC3S. The study involved the administration of 25HC3S sodium salt to healthy subjects via intramuscular injections (IM) as i) single ascending doses (SAD) in the range of 30-300 mg and as ii) a multiple ascending dose (MAD) study using multiple IM doses of 150 mg administered daily for 5 days (see Table 13). All subjects were male, with an age range of 19-36 years.
In Part A of the study (SAD), a parenteral dose of 25HC3S or matching placebo was administered intramuscularly (IM) to cohorts of 6 healthy subjects (4 randomized to 25HC3S and two randomized to matching placebo on a double-blind basis). The initial dose was 30 mg and subsequent cohorts of 6 different subjects received doses of 90, 150, and 300 mg of 25HC3S. A total of 16 subjects received 25HC3S and 8 received placebo in Part A. In Part B (MAD), a parenteral dose of 150 mg 25HC3S or matching placebo was administered IM once daily for 5 days, altering injection sites, to a single cohort of 10 healthy subjects (8 randomized to 25HC3S and two randomized to matching placebo on a double-blind basis; see Table 14).
Safety assessments included periodic monitoring of routine vital signs, safety laboratory tests and 12 lead ECG collection. Subjects completed a screening phase, treatment and an end-of-study visit. Dose escalation to the next dose level in Part I and Part II of the study was undertaken following review of the preceding dose results.
Pain intensity (measured on a 0-10 numeric rating scale) was assessed after each injection, and the injection sites were examined for tenderness, redness, bruising, swelling and induration at specified time points after injection.

For C[C@H](CCCC(C)(C)O)[C@H]1CC[C@H]2[C@@H]3CC=C4C[C@@H](OS(=O)(=O)[O-])CC[C@]4(C)[C@H]3CC[C@]12C.[Na+] [25HC3S, 5-cholesten-3, 25-diol, 3-sulfate], the “mice that had died” value [1] was 40%, the Osmolality [2] was “approximately 320 mmol/kg” and the “25HC3S Solubility” value ([3]; 50 mg/mL HPbCD in water) was 9780 µg/mL. For the same compound, the “Molar of 25HC3S” value ([3]; 50 mg/mL HPbCD in water) was 0.01938 Molar, the “25HC3S Solubility” value ([3]; 50 mg/mL SBECD in water) was 6030 µg/mL and the “Molar of 25HC3S” value ([3]; 50 mg/mL SBECD in water) was 0.01195 Molar. The “25HC3S Solubility” value ([3]; 100 mg/mL HPbCD in water) was 18440 µg/mL, the “Molar of 25HC3S” value ([3]; 100 mg/mL HPbCD in water) was 0.03654 Molar and the “25HC3S Solubility” value ([3]; 100 mg/mL SBECD in water) was 9860 µg/mL. The “Molar of 25HC3S” value ([3]; 100 mg/mL SBECD in water) was 0.01954 Molar, the “25HC3S Solubility” value ([3]; 200 mg/mL HPbCD in water) was 31970 µg/mL and the “Molar of 25HC3S” value ([3]; 200 mg/mL HPbCD in water) was 0.06334 Molar. The “25HC3S Solubility” value ([3]; 200 mg/mL SBECD in water) was 21240 µg/mL, the “Molar of 25HC3S” value ([3]; 200 mg/mL SBECD in water) was 0.04208 Molar and the “25HC3S Solubility” value ([3]; 250 mg/mL HPbCD in water) was 42370 µg/mL. For the same compound, the “Molar of 25HC3S” value ([3]; 250 mg/mL HPbCD in water) was 0.08395 Molar, the “25HC3S Solubility” value ([3]; 400 mg/mL HPbCD in water) was 66000 µg/mL and 65180 µg/mL and the “Molar of 25HC3S” value ([3]; 400 mg/mL HPbCD in water) was 0.1291 Molar. For the same compound, the “25HC3S Solubility” value ([3]; 400 mg/mL SBECD in water) was 44760 µg/mL, the “Molar of 25HC3S” value ([3]; 400 mg/mL SBECD in water) was 0.08869 Molar and the “relative amounts of HPbCD needed to solubilize 25HC3S (ratio)” value ([3]; mg/mL basis, water) was 6 to 1. For the same compound, the “25HC3S Solubility” value ([3]; water, 0 mg/mL cyclodextrin) was 140 µg/mL, the “Molar of 25HC3S” value ([3]; water, 0 mg/mL cyclodextrin) was 0.00028 Molar and the “25HC3S Solubility” value ([4]; 0 cyclodextrin, 10 mM phosphate pH 7.4, room temperature) was 6 μg/mL and 0.012 mM. The “25HC3S Solubility” value ([4]; 1% (w/v) beta-CD) was 4.314 mM, the “Complexation with CD” value ([4]; 1% (w/v) beta-CD) was “yes” and the “Ratio of CD/25HC3S” value ([4]; 1% (w/v) beta-CD) was 2 mM/mM. For the same compound, the “25HC3S Solubility” value ([4]; 1% (w/v) beta-CD (10 mg/mL), 10 mM phosphate pH 7.4, RT, one day) was 2177.4 µg/mL, the “25HC3S Solubility” value ([4]; 5% (w/v) alpha-CD) was 0.065 mM and the “Complexation with CD” value ([4]; 5% (w/v) alpha-CD) was “no”. For the same compound, the “Ratio of CD/25HC3S” value ([4]; 5% (w/v) alpha-CD) was 791 mM/mM, the “25HC3S Solubility” value ([4]; 5% (w/v) alpha-CD (50 mg/mL), 10 mM phosphate pH 7.4, RT, one day) was 32.9 µg/mL and the “25HC3S Solubility” value ([4]; 5% (w/v) gamma-CD) was 1.118 mM. The “Complexation with CD” value ([4]; 5% (w/v) gamma-CD) was “no”, the “Ratio of CD/25HC3S” value ([4]; 5% (w/v) gamma-CD) was 34 mM/mM and the “25HC3S Solubility” value ([4]; 5% (w/v) gamma-CD (50 mg/mL), 10 mM phosphate pH 7.4, RT, one day) was 564.4 µg/mL. The “repeated solubility of 25HC3S” value ([4]; 5% (w/v) γ-CD) was 292.4 µg/mL, the “25HC3S Solubility” value ([4]; 10% (w/v) alpha-CD) was 0.089 mM and the “Complexation with CD” value ([4]; 10% (w/v) alpha-CD) was “no”. For the same compound, the “Ratio of CD/25HC3S” value ([4]; 10% (w/v) alpha-CD) was 1155 mM/mM, the “25HC3S Solubility” value ([4]; 10% (w/v) alpha-CD (100 mg/mL), 10 mM phosphate pH 7.4, RT, one day) was 45 µg/mL and the “25HC3S Solubility” value ([4]; 10% (w/v) gamma-CD) was 0.301 mM. The “Complexation with CD” value ([4]; 10% (w/v) gamma-CD) was “no”, the “Ratio of CD/25HC3S” value ([4]; 10% (w/v) gamma-CD) was 256 mM/mM and the “25HC3S Solubility” value ([4]; 10% (w/v) gamma-CD (100 mg/mL), 10 mM phosphate pH 7.4, RT, one day) was 152.1 µg/mL. For the same compound, the “repeated solubility of 25HC3S” value ([4]; 10% (w/v) γ-CD) was 98.2 µg/mL, the “first time point with detectable drug levels” value [5] was 0.5 h and the “mean pain intensity (0-10 numeric rating scale)” value [5] was 0.8-3.5. The “time by which pain had resolved after injection” value [5] was at most 1 h and the “time of maximal pain intensity after injection” value [5] was 5 to 10 min.
